Patent US12617837B2, “Composition for use in treatment of allergic diseases” (UNIVERSITY OF TSUKUBA, priority 2019, dated 2026)

How the values were obtained:
human IgG1 = experiment: Glycan microarray probed with human IgG1 (control of Table 7); type: binding
Clec10a-Fc = molecular target: T1, Clec10a-Fc (Mus musculus, UniProt P49300); experiment: Sugar conjugate (glycan) microarray analysis of Clec10a-Fc (Table 7); type: binding; settings: for Signal value, Clec10a-Fc: glycan microarray probed with Clec10a-Fc; for Signal value, Clec10a-Fc with EDTA: glycan microarray probed with Clec10a-Fc with EDTA
T1 construct: cloning the extracellular region of mouse Clec10a into a pME18S expression vector; made in house; host or cells: HEK293T cells
T1 sequence (P49300 57-304 limits assumed): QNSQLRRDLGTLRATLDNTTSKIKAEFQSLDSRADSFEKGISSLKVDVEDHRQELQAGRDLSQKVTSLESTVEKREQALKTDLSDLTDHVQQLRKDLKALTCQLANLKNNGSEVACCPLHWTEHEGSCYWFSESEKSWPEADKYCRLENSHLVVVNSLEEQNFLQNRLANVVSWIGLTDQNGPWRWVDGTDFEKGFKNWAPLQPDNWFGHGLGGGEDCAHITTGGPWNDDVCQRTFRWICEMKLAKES
Description: A sugar conjugate microarray containing 98 sugar conjugates (Table 3) was prepared according to a known method using a non-contact microarray printing robot (MicroSys 4000; Genomic Solutions).

| SMILES | Signal value, Clec10a-Fc (Clec10a-Fc) | Signal value, Clec10a-Fc with EDTA (Clec10a-Fc) | Signal value, human IgG1 (human IgG1) |
| --- | --- | --- | --- |
| CC(=O)N[C@@H]1[C@@H](O[C@@H]2O[C@H](CO)[C@H](O)[C@H](O[C@]3(C(=O)O)C[C@H](O)[C@@H](NC(C)=O)[C@H]([C@H](O)[C@H](O)CO)O3)[C@H]2O)[C@H](O)[C@@H](CO)O[C@H]1O [3′SiaLec] | 4 | 0 | 0 |
| CC(=O)N[C@H]1[C@@H](O[C@@H]2[C@@H](O)[C@H](O)O[C@H](CO)[C@@H]2O)O[C@H](CO)[C@H](O)[C@@H]1O [A-di] | 1137 | 0 | 0 |
| CC(=O)N[C@@H]1[C@@H](O)[C@H](O[C@@H]2O[C@H](CO)[C@H](O)[C@H](O[C@H]3O[C@H](CO)[C@H](O)[C@H](O)[C@H]3NC(C)=O)[C@H]2O[C@@H]2O[C@@H](C)[C@@H](O)[C@@H](O)[C@@H]2O)[C@@H](CO)O[C@H]1O [A] | 0 | 0 | 0 |
| CC(=O)N[C@@H]1[C@@H](O)[C@H](O[C@@H]2O[C@H](CO)[C@H](O)[C@H](O[C@H]3O[C@H](CO)[C@H](O)[C@H](O)[C@H]3O)[C@H]2O[C@@H]2O[C@@H](C)[C@@H](O)[C@@H](O)[C@@H]2O)[C@@H](CO)O[C@H]1O [B] | 0 | 0 | 0 |
| CC(=O)N[C@@H]1[C@@H](O[C@@H]2O[C@H](CO)[C@H](O)[C@H](O)[C@H]2O)[C@@H](O)[C@@H](CO[C@@H]2O[C@H](CO)[C@@H](O)[C@H](O)[C@H]2NC(C)=O)O[C@@H]1O [Core2] | 4824 | 0 | 0 |
| CC(=O)N[C@@H]1[C@@H](O[C@@H]2O[C@H](CO)[C@@H](O)[C@H](O)[C@H]2NC(C)=O)[C@@H](O)[C@@H](CO)O[C@@H]1O [Core3] | 0 | 0 | 0 |
| CC(=O)N[C@@H]1[C@@H](O[C@@H]2O[C@H](CO)[C@@H](O)[C@H](O)[C@H]2NC(C)=O)[C@@H](O)[C@@H](CO[C@@H]2O[C@H](CO)[C@@H](O)[C@H](O)[C@H]2NC(C)=O)O[C@@H]1O [Core4] | 0 | 0 | 0 |
| C[C@@H]1O[C@@H](O[C@@H]2[C@@H](O)[C@@H](O)[C@@H](CO)O[C@H]2O)[C@@H](O)[C@H](O)[C@@H]1O [Fucα2Gal] | 0 | 0 | 0 |
| CC(=O)N[C@@H]1[C@@H](O)[C@H](O[C@@H]2O[C@@H](C)[C@@H](O)[C@@H](O)[C@@H]2O)[C@@H](CO)O[C@H]1O [Fucα4GlcNAc] | 0 | 0 | 0 |
| OC[C@H]1O[C@H](O[C@@H]2[C@@H](O)[C@H](O)O[C@H](CO)[C@@H]2O)[C@H](O)[C@@H](O)[C@H]1O [Galα1-3Gal] | 144 | 0 | 0 |
| CC(=O)N[C@@H]1[C@@H](O[C@@H]2O[C@H](CO)[C@H](O)[C@H](O)[C@H]2O[C@@H]2O[C@@H](C)[C@@H](O)[C@@H](O)[C@@H]2O)[C@H](O[C@@H]2O[C@@H](C)[C@@H](O)[C@@H](O)[C@@H]2O)[C@@H](CO)O[C@H]1O [Leb] | 0 | 0 | 0 |
| CC(=O)N[C@@H]1[C@@H](O[C@@H]2O[C@H](CO)[C@H](O)[C@H](O)[C@H]2O)[C@H](O)[C@@H](CO)O[C@H]1O [Lec] | 2414 | 0 | 0 |
| OC[C@H]1O[C@H](O[C@H]2[C@H](O)[C@@H](O)[C@H](O)O[C@@H]2CO)[C@H](O)[C@@H](O)[C@@H]1O [Maltose] | 0 | 1 | 0 |
| OC[C@H]1O[C@H](OCC2O[C@@H](O)[C@H](O)[C@@H](O)[C@@H]2O)[C@H](O)[C@@H](O)[C@H]1O (stereo partly drawn) [Melibiose] | 45 | 0 | 0 |

Continued, in another order:

| Signal value, Clec10a-Fc (Clec10a-Fc) | Signal value, Clec10a-Fc with EDTA (Clec10a-Fc) | SMILES | Signal value, human IgG1 (human IgG1) |
| --- | --- | --- | --- |
| 7 | 0 | CC(=O)N[C@@H]1[C@@H](O)[C@H](O[C@@H]2O[C@H](CO)[C@H](O)[C@H](O[C@]3(C(=O)O)C[C@H](O)[C@@H](NC(C)=O)[C@H]([C@H](O)[C@H](O)CO)O3)[C@H]2O)[C@@H](CO)O[C@H]1O [3′SLN] | 0 |
| 5 | 0 | CC(=O)N[C@H]1[C@H]([C@H](O)[C@H](O)CO)O[C@@](O[C@H]2[C@@H](O)[C@@H](CO)O[C@@H](O[C@H]3[C@H](O)[C@@H](O)[C@H](O)O[C@@H]3CO)[C@@H]2O)(C(=O)O)C[C@@H]1O [3′SL] | 0 |
| 1 | 0 | CC(=O)N[C@H]1[C@H]([C@H](O)[C@H](O)CO)O[C@@](OC[C@H]2O[C@@H](O[C@H]3[C@H](O)[C@@H](O)[C@H](O)O[C@@H]3CO)[C@H](O)[C@@H](O)[C@H]2O)(C(=O)O)C[C@@H]1O [6′SL] | 0 |
| 0 | 0 | CC(=O)N[C@@H]1[C@@H](O)[C@H](O)[C@@H](CO)O[C@H]1O [BGlcNAc] | 205 |
| 0 | 0 | CC(=O)N[C@@H]1[C@@H](O[C@H]2O[C@H](CO)[C@H](O)[C@H](O)[C@H]2O)[C@@H](O)[C@@H](CO)O[C@@H]1O [Core8] | 0 |
| 0 | 0 | CC(=O)N[C@@H]1[C@@H](O[C@H]2O[C@H](CO)[C@H](O)[C@H](O)[C@H]2NC(C)=O)[C@@H](O)[C@@H](CO)O[C@H]1O [Forssman disaccharide] | 0 |
| 0 | 0 | CC(=O)N[C@@H]1[C@@H](O[C@@H]2O[C@@H](C)[C@@H](O)[C@@H](O)[C@@H]2O)[C@H](O)[C@@H](CO)O[C@H]1O [Fucα3GlcNAc] | 0 |
| 3 | 0 | OC[C@H]1O[C@H](O[C@H]2C(O)O[C@H](CO)[C@H](O)[C@@H]2O)[C@H](O)[C@@H](O)[C@H]1O (stereo partly drawn) [Galα1-2Gal] | 0 |
| 0 | 0 | CC(=O)N[C@H]1[C@H](O[C@@H]2[C@H](O)[C@@H](O)[C@H](O[C@H]3[C@H](O)[C@@H](O)[C@H](O)O[C@@H]3CO)O[C@@H]2CO)O[C@H](CO)[C@H](O)[C@@H]1O [Gα2] | 0 |
| 1 | 0 | CC(=O)N[C@@H]1[C@@H](O[C@@H]2O[C@H](CO)[C@H](O)[C@H](O)[C@H]2O[C@@H]2O[C@@H](C)[C@@H](O)[C@@H](O)[C@@H]2O)[C@H](O)[C@@H](CO)O[C@H]1O [H type1] | 0 |
| 0 | 0 | CC(=O)N[C@@H]1[C@@H](O)[C@H](O[C@@H]2O[C@H](CO)[C@H](O)[C@H](O)[C@H]2O[C@@H]2O[C@@H](C)[C@@H](O)[C@@H](O)[C@@H]2O)[C@@H](CO)O[C@H]1O [H type2] | 0 |
| 0 | 0 | CC(=O)N[C@@H]1[C@@H](O)[C@H](O[C@@H]2O[C@H](CO)[C@H](O)[C@H](O)[C@H]2NC(C)=O)[C@@H](CO)O[C@H]1O [LDN] | 0 |
| 7 | 0 | CC(=O)N[C@@H]1[C@@H](O)[C@H](O[C@@H]2O[C@H](CO)[C@H](O)[C@H](O)[C@H]2O)[C@@H](CO)O[C@H]1O [LN] | 0 |
| 4850 | 0 | OC[C@H]1O[C@@H](O[C@H]2[C@H](O)[C@@H](O)[C@H](O)O[C@@H]2CO)[C@H](O)[C@@H](O)[C@H]1O [Lac] | 0 |
| 0 | 0 | CC(=O)N[C@H]1[C@H]([C@H](O)[C@H](O)CO)O[C@@](O)(C(=O)O)C[C@@H]1O [Ne̊u5Ac] | 0 |
| 0 | 0 | O=C(CO)N[C@H]1[C@H]([C@H](O)[C@H](O)CO)O[C@@](O)(C(=O)O)C[C@@H]1O [Ne̊u5Gc] | 0 |
| 19 | 3 | CC(=O)N[C@H]1[C@H]([C@H](O)[C@H](O)CO)O[C@@](O[C@H](CO)[C@@H](O)[C@@H]2O[C@@](O[C@H](CO)[C@@H](O)[C@@H]3O[C@@](O)(C(=O)O)C[C@H](O)[C@H]3NC(C)=O)(C(=O)O)C[C@H](O)[C@H]2NC(C)=O)(C(=O)O)C[C@@H]1O [Sia3] | 0 |
| 0 | 0 | CC(=O)N[C@@H]1[C@@H](O[C@@H]2O[C@H](CO)[C@H](O)[C@H](O)[C@H]2O)[C@@H](O)[C@@H](CO[C@]2(C(=O)O)C[C@H](O)[C@@H](NC(C)=O)[C@H]([C@H](O)[C@H](O)CO)O2)O[C@@H]1O [Siaα2-6Core 1] | 0 |
